In patent publication US20050234026A1, “Method and agent for inducing apoptosis/cell death in leukemia cells” (priority 2003, published 2005):
Where two headings read alike, the source gives them in different places.

How the values were obtained:
CLL cells = experiment: Cytotoxicity of NOS inhibitors and NO quenchers/scavengers for freshly-isolated CLL cells in vitro; format: cell-based, human; conditions: for ED50 for CLL: Table 2, CLL cytotoxicity; for ED50 for CLL (mean ± SEM): CLL cytotoxicity, freshly-isolated patient cells in vitro; for EC50: read-out: EC50 (average concentration of compound that induced 50% CLL cell death), CLL cell death in vitro, ± SEM
pure human enzyme NOS3 = pure human enzyme NOS3 (Homo sapiens, UniProt P29474); experiment: Kd for enzyme inhibition, pure human NOS3; format: biochemical
pure human enzyme NOS3, sequence (P29474 whole entry): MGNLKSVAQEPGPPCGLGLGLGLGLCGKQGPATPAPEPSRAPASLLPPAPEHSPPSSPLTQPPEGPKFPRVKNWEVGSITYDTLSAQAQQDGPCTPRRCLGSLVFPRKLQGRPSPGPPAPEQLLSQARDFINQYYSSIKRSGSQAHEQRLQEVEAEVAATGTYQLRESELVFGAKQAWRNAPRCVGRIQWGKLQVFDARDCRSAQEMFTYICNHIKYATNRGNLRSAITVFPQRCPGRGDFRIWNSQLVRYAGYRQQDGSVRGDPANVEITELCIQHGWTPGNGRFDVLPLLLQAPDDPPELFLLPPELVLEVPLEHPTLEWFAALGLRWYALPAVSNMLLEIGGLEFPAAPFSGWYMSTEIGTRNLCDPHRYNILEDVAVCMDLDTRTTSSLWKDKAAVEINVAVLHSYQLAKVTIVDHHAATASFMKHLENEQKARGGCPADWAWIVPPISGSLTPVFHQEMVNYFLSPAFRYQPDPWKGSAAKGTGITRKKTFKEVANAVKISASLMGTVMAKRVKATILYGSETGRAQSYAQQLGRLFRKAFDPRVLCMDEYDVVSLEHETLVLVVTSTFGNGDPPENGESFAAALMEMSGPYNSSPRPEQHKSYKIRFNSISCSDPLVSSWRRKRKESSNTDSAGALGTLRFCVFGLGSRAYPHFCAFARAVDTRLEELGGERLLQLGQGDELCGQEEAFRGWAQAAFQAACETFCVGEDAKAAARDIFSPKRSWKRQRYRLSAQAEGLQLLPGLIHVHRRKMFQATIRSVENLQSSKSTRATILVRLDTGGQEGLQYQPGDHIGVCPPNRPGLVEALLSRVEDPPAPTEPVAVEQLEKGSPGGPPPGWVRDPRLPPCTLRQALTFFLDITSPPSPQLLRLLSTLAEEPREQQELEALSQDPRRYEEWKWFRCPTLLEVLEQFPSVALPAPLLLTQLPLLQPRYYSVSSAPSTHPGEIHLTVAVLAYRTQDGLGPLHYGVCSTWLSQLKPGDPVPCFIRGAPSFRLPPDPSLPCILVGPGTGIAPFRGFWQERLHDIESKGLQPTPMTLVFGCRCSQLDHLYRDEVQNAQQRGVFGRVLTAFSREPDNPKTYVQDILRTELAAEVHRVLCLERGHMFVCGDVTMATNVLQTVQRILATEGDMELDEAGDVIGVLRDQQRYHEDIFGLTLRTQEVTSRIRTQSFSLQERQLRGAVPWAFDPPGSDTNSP

[1] = test system: freshly-isolated CLL cells; experiment: Apoptosis and death of freshly-isolated CLL cells after exogenous NO donors and drugs; format: cell-based, human; conditions: for ID50, CLL cell apoptosis and death: acute addition
Source text: We next wanted to examine CLL cells. These malignant cells differ in many ways from ANLL and normal hematopoietic. In addition to their different lineage, they are unique in that they have a very low growth […], exist primary in the G0 phase of the cell cycle, and have defective apoptosis. […] NO also synergized with the ara-guanosine prodrug 2-amino-9-[…]-D-6-methoxy araguanine (also called 506U78).

HL-60 and U937 cells = experiment: Growth inhibition of acute nonlymphocytic leukemia cell lines by NO donors; format: cell-based, human
Source text: To more closely examine the mechanism of toxicity for myeloid leukemia cells, we did work to determine whether the rate of NO delivery affected its growth inhibition of acute nonlymphocytic leukemia cells. We also wanted to determine whether the NO inhibition of cell growth is associated induction of apoptosis. We treated HL-60 and U937 cells with three compounds that generate the same amount of NO but different rates. […] Furthermore, NO-induced growth inhibition was associated with apoptosis in a rate and concentration-dependent fashion (Reference 39).

[2] = cited from earlier work
[3] = normals and trials for septic shock and migraine; cited from earlier work
[4] = test system: HL-60 myeloblastic leukemia cells; experiment: Growth of HL-60 myeloblastic leukemia cells under NO-delivering drugs; format: cell-based, human; conditions: NO delivered from the drug
Source text: While studying NO and macrophages progressed in the late 1980s, we hypothesized that NO produced in the BM would be a modulator of normal and leukemic hematopoiesis. […] The differentiated cells were vacuolated, and had increased expression of nonspecific esterase, CD11 b, and CD14.

normal human BM cells = experiment: Colony formation of normal human bone marrow cells / CD34+ cells in methylcellulose; format: cell-based; conditions: normal human BM cells in methylcellulose with erythropoietin and colony stimulating factors
Procedure: The effects of NO on the growth and differentiation of normal human BM cells were analyzed (Reference 85). We felt that normal hematopoietic cells, like malignant hematopoietic cells, would be affected by NO. […] In retrospect, we think that the increase in CFU-GM by NO from SNP may be due to alterations in apoptosis secondary to changes in bcl-2 or caspases. None of the noted inhibitions were related to cGMP.

[5] = target: recombinant purified human NOS1 (Homo sapiens, UniProt P29475); experiment: Kd for enzyme inhibition, pure human NOS1; format: biochemical
recombinant purified human NOS1, sequence (P29475 whole entry): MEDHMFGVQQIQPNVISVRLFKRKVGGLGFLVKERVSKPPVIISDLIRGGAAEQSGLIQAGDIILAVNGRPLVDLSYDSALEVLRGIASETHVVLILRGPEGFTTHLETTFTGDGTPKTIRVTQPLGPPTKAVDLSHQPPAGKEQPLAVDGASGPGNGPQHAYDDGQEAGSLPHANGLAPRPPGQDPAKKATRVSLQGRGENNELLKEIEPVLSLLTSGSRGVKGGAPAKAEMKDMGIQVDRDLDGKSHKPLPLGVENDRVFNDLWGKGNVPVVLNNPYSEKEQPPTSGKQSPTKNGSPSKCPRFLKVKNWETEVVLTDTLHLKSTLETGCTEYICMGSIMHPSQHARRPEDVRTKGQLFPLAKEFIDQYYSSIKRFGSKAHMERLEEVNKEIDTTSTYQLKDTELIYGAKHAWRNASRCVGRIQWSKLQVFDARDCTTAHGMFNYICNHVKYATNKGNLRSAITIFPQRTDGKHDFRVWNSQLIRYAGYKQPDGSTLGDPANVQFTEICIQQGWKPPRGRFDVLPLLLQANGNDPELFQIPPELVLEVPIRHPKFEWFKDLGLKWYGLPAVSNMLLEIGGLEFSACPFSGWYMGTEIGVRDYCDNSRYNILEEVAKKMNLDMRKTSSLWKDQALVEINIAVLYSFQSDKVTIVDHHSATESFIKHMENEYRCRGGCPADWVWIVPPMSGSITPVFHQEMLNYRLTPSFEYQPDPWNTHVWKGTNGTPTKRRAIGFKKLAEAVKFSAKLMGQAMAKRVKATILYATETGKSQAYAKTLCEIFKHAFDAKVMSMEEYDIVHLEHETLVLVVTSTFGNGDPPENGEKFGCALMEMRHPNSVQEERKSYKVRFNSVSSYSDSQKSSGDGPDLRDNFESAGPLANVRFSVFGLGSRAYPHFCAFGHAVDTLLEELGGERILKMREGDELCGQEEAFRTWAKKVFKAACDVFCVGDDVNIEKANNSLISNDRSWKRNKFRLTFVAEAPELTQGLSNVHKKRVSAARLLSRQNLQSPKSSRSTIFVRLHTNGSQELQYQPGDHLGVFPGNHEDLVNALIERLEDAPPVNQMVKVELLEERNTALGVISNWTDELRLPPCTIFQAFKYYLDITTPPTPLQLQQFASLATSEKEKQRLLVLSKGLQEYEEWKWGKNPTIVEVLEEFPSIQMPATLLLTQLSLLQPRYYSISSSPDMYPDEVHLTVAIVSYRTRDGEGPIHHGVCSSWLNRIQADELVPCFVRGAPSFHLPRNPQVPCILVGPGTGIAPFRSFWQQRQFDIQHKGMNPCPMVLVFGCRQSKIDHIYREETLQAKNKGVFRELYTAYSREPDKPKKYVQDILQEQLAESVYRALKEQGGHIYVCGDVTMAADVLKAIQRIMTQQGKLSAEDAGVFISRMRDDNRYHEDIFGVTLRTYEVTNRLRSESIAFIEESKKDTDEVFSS

For `Cc1ccnc(N)c1` [2-amino-4-methyl pyridine], the “ED50 for CLL” value (CLL cells) was greater than 2000 µM.
In the case of `O=[N+]([O-])c1cccc2cn[nH]c12` [7-NI, 7-Nitroindazole], the “ED50 for CLL (mean ± SEM)” value (CLL cells) is reported as 131 ± 23 µM and the EC50 (CLL cells; Homo sapiens) is reported as 131 ± 23 µM.
With `Cl.Cl.N=C(Nc1ccc(CCNCc2cccc(Cl)c2)cc1)c1cccs1` [ARL-17477, N-[4-(2-{[(3-chlorophenyl)methyl]amino}ethyl)phenyl]-2-thiophenecarboximide dihydrochloride] the “ED50 for CLL (mean ± SEM)” value (CLL cells) was 11 ± 2 µM, the “ED50 for CLL” value (CLL cells) was 11 µM and the EC50 (CLL cells) was 11 ± 2 µM. It also gave a Kd (pure human enzyme NOS3) of 1 µM.
With `CC1(C)N([O])C(c2ccc(C(=O)O)cc2)=[N+]([O-])C1(C)C` [Carboxy-PTIO, 2-(4-Carboxyphenyl)-4,4,5,5-tetramethylimidazoline-1-oxyl-3-oxide] the “ED50 for CLL (mean ± SEM)” value (CLL cells) was 227 ± 31 µM and the EC50 (CLL cells) was 227 ± 31 µM.
With `NCCN(CCN)/[N+]([O-])=N/O` [DETA-NO] the “Interaction with fludarabine in killing CLL cells” value ([1]; combination with fludarabine) was “acted synergistically”, the “ID50, CLL cell apoptosis and death” value ([1]; freshly-isolated CLL cells) was 188 µM and the “Interaction with other agents in killing CLL cells” value ([1]; with 5-fluorouracil, gemcitabine, doxorubicin, chlorambucil or SN-38) was “did not enhance the activity”. The “Inhibition of leukemia cell and colony growth (rank)” value (HL-60 and U937 cells) was “most potent inhibitor” and the “half-life of NO delivery” value [2] was 1200 min.
In the case of `NCCNCCN` [DETA], the “Effect on CLL cells (control for NO dependence)” value ([1]; freshly-isolated CLL cells) is reported as “had no effects”.
With `C/C1=C2/[N-][C@H]([C@H](CC(N)=O)[C@@]2(C)CCC(=O)NC[C@@H](C)OP(=O)([O-])O[C@H]2[C@@H](O)[C@@H](n3cnc4cc(C)c(C)cc43)O[C@@H]2CO)[C@]2(C)N=C(/C(C)=C3N=C(/C=C4N=C1[C@@H](CCC(N)=O)C\4(C)C)[C@@H](CCC(N)=O)[C@]\3(C)CC(N)=O)[C@@H](CCC(N)=O)[C@]2(C)CC(N)=O.[Co+3].[OH-]` [Hydroxocobalamin] the “ED50 for CLL (mean ± SEM)” value (CLL cells) was 148 ± 46 µM and the EC50 (CLL cells) was 148 ± 46 µM.
For `CNC(=N)NCCC[C@H](N)C(=O)O` [L-N^G-monomethylarginine], the “ED50 for CLL” value (CLL cells) is listed as greater than 2000 µM and the “Effects on cardiovascular, liver, or hematopoietic function” value [3] is listed as “no major effects”.
For `NC(=N[N+](=O)[O-])NCCCC(N)C(=O)O` [L-N^G-nitroarginine], the “ED50 for CLL” value (CLL cells) was greater than 2000 µM.
For `CNCCCCCCN(C)/[N+]([O-])=N/O` [MAMA-NO], the “ID50, CLL cell apoptosis and death” value ([1]; freshly-isolated CLL cells) is listed as 1658 µM and the “half-life of NO delivery” value [2] is listed as 2 min.
In the case of `CCCN(CCCN)/[N+]([O-])=N/O` [PAPA-NO], the “ID50, CLL cell apoptosis and death” value ([1]; freshly-isolated CLL cells) is given as 850 µM and the “half-life of NO delivery” value [2] is given as 30 min.
With `[NH-]c1c[n+](N2CCOCC2)no1` [SIN-1] the “Growth of HL-60 cells” value [4] was “potently inhibited” and the “Development of marrow colonies” value (normal human BM cells) was “inhibited”.
For `FC(F)(F)c1ccccc1-n1ccnc1` [TRIM, 1-(2-Trifluoromethylphenyl)imidazole], the “ED50 for CLL (mean ± SEM)” value (CLL cells) was 445 ± 46 µM and the EC50 (CLL cells; Homo sapiens) was 445 ± 46 µM.
For `C=CCC(=N)NCCC[C@H](N)C(=O)O` [Vinyl-L-NIO, N^5-(1-imino-3-butenyl)-L-ornithine], the “ED50 for CLL (mean ± SEM)” value (CLL cells) was 747 ± 126 µM, the EC50 (CLL cells; Homo sapiens) was 747 ± 126 µM and the “ED50 for CLL” value (CLL cells) was 747 µM. For the same compound, the Kd [5] was 0.1 µM.
With `Nc1nc(F)nc2c1ncn2[C@@H]1O[C@H](CO)[C@@H](O)[C@@H]1O` [fludarabine] the “ID50, CLL cell apoptosis and death” value ([1]; freshly-isolated CLL cells) was 2 µM.
With S-nitrosoacetylpenicillamine [SNAP] the “Growth of HL-60 cells” value [4] was “potently inhibited” and the “Development of marrow colonies” value (normal human BM cells) was “inhibited”.
